Data taken from patent US20150374646A1, “TREATMENT OF CANCER AND OTHER CONDITIONS USING A TRANSCRIPTION FACTOR MODULATOR” (C & C BIOPHARMA, LLC, priority 2013, published 2015).
pIC50: −log10 of the molar value.

How the values were obtained:
MV4-11 cells = assay: Subcutaneous MV4-11 leukemia tumor growth in NOD/SCID mice (Example 5); format: in vivo; conditions: 100 mg/kg p.o. × 27 days
Protocol: Female Nonobese Diabetic/Severe Combined Immunodeficiency (NOD/SCID) mice that were 4-6 weeks old were used in the experiment. The mice were fed under specific pathogen free (SPF) conditions. Food and water were available to the mice at will. A suspension of 1×10^7 cells per mouse B-myelomonocytic leukemia MV4-11 cells (0.2 mL) in logarithmic phase were inoculated subcutaneously into the right back of the NOD/SCID nude mice.
The general conditions of the mice and the growth of the transplanted tumor were monitored. […] The control group received an intraperitoneal (IP) injection of 0.2 mL of solvent (20% DMSO, 80% of 20% w/v (2-hydroxypropyl)-β-cyclodextrin made in PBS). […] The high dosage group received an intraperitoneal injection of 50 mg/kg/day of YT30 (0.2 mL in volume) suspended in solvent (20% DMSO, 80% of 20% w/v (2-hydroxypropyl)-β-cyclodextrin made in PBS), while the low dosage group received IP injection of 25 mg/kg/day YT30 (0.2 mL in volume). Frequency of the administration was once per day and the experiment lasted 27 days after treatment started.
The body weights of the mice were recorded prior to the start of treatment and twice every week thereafter. Each mouse of every group was monitored daily for any other symptoms of side effects including change in behavior, activity or posture, areas of redness and swelling, and food and water withdrawal. Caliper measurements of the longest perpendicular tumor diameters were performed every 2 days to estimate the tumor volume; the following formula: 4π/3×(width/2)^2×(length/2) was used to calculate the three-dimensional volume of an ellipse. The tumor inhibition rate was calculated according to tumor volume: Tumor inhibition rate by size (%)=(Tumor volume of the control group−Tumor volume of the treated group)/Tumor volume of the control group×100. The mice were euthanized on the next day after the final injection and the subcutaneous tumor nodules were taken out intact and weighed. The tumor inhibition rate was calculated again according to tumor weight: Tumor inhibition rate by weight (%)=(Tumor weight of the control group−Tumor weight of the treated group)/Tumor weight of the control group×100).

K562 cells = assay: Subcutaneous K562 (CML) tumor growth in SCID mice (Example 6); format: in vivo; conditions: Imatinib 100 mg/kg p.o. × 16 days, SCID mice, K562 tumor
Protocol: Male Severe Combined Immunodeficiency (SCID) mice that were 4-6 weeks old were used in the experiment. The mice were fed under specific pathogen free (SPF) conditions. Food and water were available to the mice at will. A suspension of 8×10^6 chronic myelogenous leukemia K562 cells (0.2 mL) was inoculated subcutaneously into the right back of the SCID mice.
The general conditions of the mice and the growth of the transplanted tumor were monitored. […] The control group received an intraperitoneal injection (IP) of 0.2 mL solvent (20% DMSO, 80% of 20% w/v (2-hydroxypropyl)-β-cyclodextrin made in PBS). […] The YT30 treated groups received either intraperitoneal injection of 50 mg/kg/day of YT30 (0.2 mL in volume) suspended in solvent (20% DMSO, 80% of 20% w/v (2-hydroxypropyl)-β-cyclodextrin made in PBS) or oral gavage of 90 mg/kg/day YT30 in solvent (Cremophor RH40:TW80:PEG400 (2:1:1)). Frequency of the administration was once per day and the experiment lasted 16 days after initiation of the treatment.
The body weights of the mice were recorded prior to the start of treatment and twice every week thereafter. Each mouse of every group was monitored daily for any other symptoms of side effects including change in behavior, activity or posture, areas of redness and swelling, and food and water withdrawal. Caliper measurements of the longest perpendicular tumor diameters were performed every 2 days to estimate the tumor volume; the following formula: 4π/3×(width/2)^2×(length/2) was used to calculate the three-dimensional volume of an ellipse. The tumor inhibition rate was calculated according to tumor volume: Tumor inhibition rate by size (%)=(Tumor volume of the control group−Tumor volume of the treated group)/Tumor volume of the control group×100. The SCID mice were euthanized 2 hours after the final injection and the subcutaneous tumor nodules were taken out intact and weighed. The tumor inhibition rate was calculated again according to tumor weight: Tumor inhibition rate by weight (%)=(Tumor weight of the control group−Tumor weight of the treated group)/Tumor weight of the control group×100.

Nalm-6 [1] = assay: cells; conditions: Homo sapiens, NALM-6, 72 h, read-out: 72 hr growth inhibition (%)
Protocol: (§2) Various human leukemia cells were grown to the logarithmic growth phase and seeded into 24-well plates. […] Treated cells were further incubated for 72 hours and then were examined for cell proliferation. Cell proliferation was determined using the CellTiter-Glo Luminescence Cell Viability assay (Promega Corporation, Madison, Wis.) according to the manufacturer's protocol. The calculated inhibition rate was determined with the following formula: Inhibition rate (%)=(1−Luminescence of experimental group/Luminescence of control group)×100. IC50 is the calculated concentration of a compound needed to inhibit half of the maximum cell growth (equivalent to cell growth in control group) based on the corresponding dose-response curve under the described experimental conditions.
Growth inhibition experiments were performed as previously described.

HL60 [2] = assay: Leukemia cell growth inhibition, CellTiter-Glo (Example 1); format: cell-based, human; conditions: HL60 cells, 4 μM
Protocol: as §2

Nalm-6 [3] = assay: as above; format: cell-based, human; conditions: Nalm-6 cells, 4 μM
Protocol: as §2

REH = assay: as above; format: cell-based, human; conditions: REH cells, 4 μM
Protocol: as §2

786-0 = assay: Cancer cell line growth inhibition, CellTiter-Glo (Example 3); format: cell-based; conditions: Homo sapiens, Renal, 72 hours, read-out: growth inhibition of various human cancer cell lines
Protocol: (§1) YT30 was tested for growth inhibition against 67 human cancer cell lines derived from diverse tissues including the National Cancer Institute human cancer cell lines (NCI-60). […] Cells in different wells were treated with various concentrations of YT30, YT86, YT88, or YT128. […] Cell viabilities were determined by the CellTiter-Glo Luminescence Cell Viability assay kit (Promega Corporation, Madison, Wis.) according to manufacturer's protocol.

A498 = assay: as above; format: cell-based; conditions: Homo sapiens, Renal, 72 hours, read-out: growth inhibition of various human cancer cell lines
Protocol: as §1

A549 = assay: as above; format: cell-based; conditions: Homo sapiens, Lung, 72 hours, read-out: growth inhibition of various human cancer cell lines
Protocol: as §1

BT-549 = assay: as above; format: cell-based; conditions: Homo sapiens, Breast, 72 hours, read-out: growth inhibition of various human cancer cell lines
Protocol: as §1

CCRF-CEM = assay: as above; format: cell-based; conditions: Homo sapiens, Leukemia, 72 hours, read-out: growth inhibition of various human cancer cell lines
Protocol: as §1

Caski = assay: as above; format: cell-based; conditions: Homo sapiens, Ca-Ski, Cervical, 72 hours, read-out: growth inhibition of various human cancer cell lines
Protocol: as §1

HL60 [4] = assay: as above; format: cell-based; conditions: Homo sapiens, HL-60, Leukemia, 72 hours, read-out: growth inhibition of various human cancer cell lines
Protocol: as §1

HS 578T = assay: as above; format: cell-based; conditions: Homo sapiens, Breast, 72 hours, read-out: growth inhibition of various human cancer cell lines
Protocol: as §1

HeLa = assay: as above; format: cell-based; conditions: Homo sapiens, Cervical, 72 hours, read-out: growth inhibition of various human cancer cell lines
Protocol: as §1

K562 = assay: as above; format: cell-based; conditions: Homo sapiens, Leukemia, 72 hours, read-out: growth inhibition of various human cancer cell lines
Protocol: as §1

MCF7 = assay: as above; format: cell-based; conditions: Homo sapiens, Breast, MCF-7, 72 hours, read-out: growth inhibition of various human cancer cell lines
Protocol: as §1

MDA-MB-435 = assay: as above; format: cell-based; conditions: Homo sapiens, Breast, 72 hours, read-out: growth inhibition of various human cancer cell lines
Protocol: as §1

MDA-MB-468 = assay: as above; format: cell-based; conditions: Homo sapiens, Breast, 72 hours, read-out: growth inhibition of various human cancer cell lines
Protocol: as §1

MDA-MB231 = assay: as above; format: cell-based; conditions: Homo sapiens; Breast, MDA-MB-231; 72 hours; read-out: growth inhibition of various human cancer cell lines
Protocol: as §1

MOLT-4 = assay: as above; format: cell-based; conditions: Homo sapiens, Leukemia, 72 hours, read-out: growth inhibition of various human cancer cell lines
Protocol: as §1

NCI/ADR-RES = assay: as above; format: cell-based; conditions: Homo sapiens, Breast, 72 hours, read-out: growth inhibition of various human cancer cell lines
Protocol: as §1

OVCAR-3 = assay: as above; format: cell-based; conditions: Homo sapiens, Ovarian, 72 hours, read-out: growth inhibition of various human cancer cell lines
Protocol: as §1

OVCAR-4 = assay: as above; format: cell-based; conditions: Homo sapiens, Ovarian, 72 hours, read-out: growth inhibition of various human cancer cell lines
Protocol: as §1

OVCAR-5 = assay: as above; format: cell-based; conditions: Homo sapiens, Ovarian, 72 hours, read-out: growth inhibition of various human cancer cell lines
Protocol: as §1

SF-268 = assay: as above; format: cell-based; conditions: Homo sapiens, CNS, 72 hours, read-out: growth inhibition of various human cancer cell lines
Protocol: as §1

SF-295 = assay: as above; format: cell-based; conditions: Homo sapiens, CNS, 72 hours, read-out: growth inhibition of various human cancer cell lines
Protocol: as §1

SF-539 = assay: as above; format: cell-based; conditions: Homo sapiens, CNS, 72 hours, read-out: growth inhibition of various human cancer cell lines
Protocol: as §1

SN12C = assay: as above; format: cell-based; conditions: Homo sapiens, Renal, 72 hours, read-out: growth inhibition of various human cancer cell lines
Protocol: as §1

SNB-19 = assay: as above; format: cell-based; conditions: Homo sapiens, CNS, 72 hours, read-out: growth inhibition of various human cancer cell lines
Protocol: as §1

SR = assay: as above; format: cell-based; conditions: Homo sapiens, Leukemia, 72 hours, read-out: growth inhibition of various human cancer cell lines
Protocol: as §1

T-47D = assay: as above; format: cell-based; conditions: Homo sapiens, T47D, Breast, 72 hours, read-out: growth inhibition of various human cancer cell lines
Protocol: as §1

TK-10 = assay: as above; format: cell-based; conditions: Homo sapiens, Renal, 72 hours, read-out: growth inhibition of various human cancer cell lines
Protocol: as §1

U251 = assay: as above; format: cell-based; conditions: Homo sapiens, U-251, CNS, 72 hours, read-out: growth inhibition of various human cancer cell lines
Protocol: as §1

UO-31 = assay: as above; format: cell-based; conditions: Homo sapiens, Renal, 72 hours, read-out: growth inhibition of various human cancer cell lines
Protocol: as §1

siHa = assay: as above; format: cell-based; conditions: Homo sapiens, Cervical, 72 hours, read-out: growth inhibition of various human cancer cell lines
Protocol: as §1

Structure (SMILES)	pIC50 (A498)	pIC50 (A549)	pIC50 (BT-549)	pIC50 (CCRF-CEM)	pIC50 (Caski)	pIC50 (HL60 [4])	pIC50 (HS 578T)	pIC50 (HeLa)	pIC50 (K562)	pIC50 (MCF7)	pIC50 (MDA-MB-435)	pIC50 (MDA-MB-468)	pIC50 (MDA-MB231)	pIC50 (MOLT-4)	pIC50 (OVCAR-3)	pIC50 (OVCAR-4)	pIC50 (OVCAR-5)	pIC50 (SF-268)	pIC50 (SF-295)	pIC50 (SF-539)	also measured
Cc1ccc(NC(=O)c2ccc(CN3CCN(C)CC3)cc2)cc1Nc1nccc(-c2cccnc2)n1 [Imatinib, imatinib, reference compound]	–	–	–	–	–	–	–	–	–	–	–	–	–	–	–	–	–	–	–	–	Average body weight (g, x ± s) End point (MV4-11 cells): 22.06 ± 1.74 g; Body weight change (%) (MV4-11 cells): −1.0%; Tumor growth Inhibition by size (%) (MV4-11 cells): 52.5%; Tumor growth Inhibition by weight (%) (MV4-11 cells): 41.7%; Tumor size (mm^3) (MV4-11 cells): 1040.51 ± 422.38 mm^3; Tumor weight (g, x ± s) (MV4-11 cells): 1.29 ± 0.42 g; Body weight change (K562 cells): −3.26%; Tumor growth inhibition by size (K562 cells): 43.97%; Tumor growth inhibition by weight (K562 cells): 27.91%; Average body weight, End point (K562 cells; end point, x ± s): 18.37 ± 0.54 g; Average body weight, Initial (K562 cells; initial (before treatment), x ± s): 18.99 ± 1.23 g; Tumor size (K562 cells; x ± s): 1744.05 ± 1049.95 mm^3; inhibition at 5 µM (Nalm-6 [1]): 0%; inhibition at 10 µM (Nalm-6 [1]): 44%
Nc1ccccc1NC(=O)Cc1cccc(CC(=O)Nc2ccccc2N)c1 [YT19]	–	–	–	–	–	–	–	–	–	–	–	–	–	–	–	–	–	–	–	–	Growth inhibition (FIG. 1) (HL60 [2]): failed to inhibit cell growth; Growth inhibition (FIG. 1) (Nalm-6 [3]): failed to inhibit cell growth; Growth inhibition (FIG. 1) (REH): failed to inhibit cell growth
Nc1ccccc1NC(=O)CCCCCCNC(=O)c1cc2ccccc2[nH]1 [YT128]	5.13	4.89	5.04	5.37	4.96	5.23	5.08	5.18	5.30	5.07	5.01	4.95	5.17	5.29	5.16	4.87	5.16	4.87	5.06	5.12	pIC50 (786-0): 5.02; pIC50 (NCI/ADR-RES): 4.84; pIC50 (SN12C): 5.15; pIC50 (SNB-19): 4.86; pIC50 (SR): 5.22; pIC50 (T-47D): 4.90; pIC50 (TK-10): 4.92; pIC50 (U251): 5.30; pIC50 (UO-31): 5.18; pIC50 (siHa): 5.01
Nc1ccccc1NC(=O)CCCCCNC(=O)c1cc2ccccc2[nH]1 [YT86]	5.02	4.96	4.87	5.50	4.95	5.32	5.05	5.17	5.25	5.23	5.08	5.15	5.24	5.51	5.14	4.85	5.22	4.83	5.13	5.11	pIC50 (SN12C): 5.10; pIC50 (SNB-19): 4.85; pIC50 (SR): 5.19; pIC50 (T-47D): 4.90; pIC50 (TK-10): 4.76; pIC50 (U251): 5.35; pIC50 (UO-31): 5.12; pIC50 (siHa): 5.06
